Test results published in patent US20060057104A1, “Methods for stimulating tlr irf3 pathways for inducing anti-microbial, anti-inflammatory and anticancer responses” (THE Regents of the University of California Office of the …, priority 2002, published 2006).

Tested on: BMMs
Assay: Q-PCR gene expression in BMMs stimulated with TLR agonists (Example 1)
Type: cell-based, murine
Settings: for immediate early upregulation of IFNβ, IP10 and RANTES: BMMs, lipid A 1 ng/mL, PGN 10 μg/mL, poly I:C 1 μg/ml, CpG 100 nM, 1 hr
Procedure: (C) BMM's were stimulated with the following TLR-agonists: lipid A (1 ng/mL), peptidoglycan (PGN) (10 μg/mL), poly I:C (I μg/ml), or CpG (100 nM) for 30 min, and cell extracts were used for an in vitro kinase assay using GST-c-jun as a substrate (upper left), identical simulations were repeated for I hr, and RNA was harvested, and used for Q-PCR analysis.
(A) BMMs were stimulated for the indicated time points with the following TLR-agonists: lipid A (1 ng/ml), PGN (20 μg/ml), poly I:C (1 μg/ml), or CpG (100 nM), and RNA was harvested and used for Q-PCR analysis.
Murine bone marrow-derived macrophages (BMMs) were differentiated from marrow from 6-10 week old C57B/6 mice as previously described (Chin, A. I., Dempsey, P. W., Beuhn, K., Miller, J. F., Xu, Y., and Cheng, G. (2002), Nature 416, 190-194). BMMs were maintained in 1× DMEM, 10% fetal bovine serum, 1% penicillin/streptomycin, and 30% L929 conditioned medium, and purity was assayed to be 94-99% CD11b^+. The RAW 264.7 murine macrophage cell line (ATCC: TIB-71) was maintained in 1× DMEM with 10% fetal bovine serum and 1% penicillin/streptomycin. […]
RNA was isolated for both Northern blotting and quantitative real-time PCR (Q-PCR) using a standard guanidium isothiocyanate method. […] For Q-PCR, RNA was quantitated and 2 μg of RNA was used to make cDNA templates using Superscript II (Invitrogen) according the manufactuors instruction with either oligo-dT or random hexamer as primers. […]
We then investigated the TLR-specificity of gene expression in BMMs using specific agonists for TLR4 (lipid A), TLR2 (peptioglycan), TLR3 (poly I:C) and TLR9 (CpG). In order to account for differences in binding affinity and receptor expression, the concentrations of TLR ligands used for stimulation were titrated to produce roughly equivalent activation of the JNK pathway as determined by GST-c-Jun in vitro kinase assay (FIG. 2C, upper left).

Substance	gene induction in TLR4-null BMMs (BMMs from C57BL/10ScCr mice (null mutation in TLR4 gene))	immediate early upregulation of IFNβ, IP10 and RANTES
lipid A	No gene induction	immediate early upregulation
poly I:C	–	immediate early upregulation
